Tests used:
HG-3 cells [1] = settings: 10 µM
PGA-1 cells [2] = settings: 10 µM
HG-3 cells [3] = assay: alamarBlue cell viability assay
PGA-1 cells [4] = assay: alamarBlue cell viability assay; settings: PGA-1, 1 µM

O=C(c1ccccc1)c1ccc(N2C(=O)C3C4c5ccccc5C(C=CC(=O)c5ccco5)(c5ccccc54)C3C2=O)cc1 (stereo not shown) [Compound 26o, (E)-13-(4-Benzoylphenyl)-9-(3-(furan-2-yl)-3-oxoprop-1-en-1-yl)-9,10-dihydro-9,10-[3,4]epipyrroloanthracene-12,14-dione]
cell viability (HG-3 cells [1]): 15% | cell viability (PGA-1 cells [2]): 9%

O=C(C=CC12c3ccccc3C(c3ccccc31)C1C(=O)N(c3ccccc3)C(=O)C12)c1ccc([N+](=O)[O-])cc1 (stereo not shown) [Compound 24b, 9-(E)-3-(4-Nitrophenyl)-3-oxoprop-1-en-1-yl)-13-phenyl-9,10-dihydro-9,10-[3,4]epipyrroloanthracene-12,14-dione]
cell viability (HG-3 cells [1]): 10% | cell viability (PGA-1 cells [2]): 22%

O=C(C=CC12c3ccccc3C(c3ccccc31)C1C(=O)N(c3ccccc3)C(=O)C12)c1ccco1 (stereo not shown) [Compound 24o, 9-(E)-3-(Furan-2-yl)-3-oxoprop-1-en-1-yl)-13-phenyl-9,10-dihydro-9,10-[3,4]epipyrroloanthracene-12,14-dione]
cell viability (HG-3 cells [1]): 3% | cell viability (PGA-1 cells [2]): 9%

O=C(C=CC12c3ccccc3C(c3ccccc31)C1C(=O)N(c3ccc(Cl)cc3)C(=O)C12)c1ccco1 (stereo not shown) [Compound 25o, (E)-13-(4-Chlorophenyl)-9-(3-(furan-2-yl)-3-oxoprop-1-en-1-yl)-9,10-dihydro-9,10-[3,4]epipyrroloanthracene-12,14-dione]
cell viability (HG-3 cells [1]): 5% | cell viability (PGA-1 cells [2]): 14%

O=C(C=CC12c3ccccc3C(c3ccccc31)C1C(=O)N(c3ccc(Cl)cc3)C(=O)C12)c1ccc(Br)cc1 (stereo not shown) [Compound 25a, (E)-9-(3-(4-Bromophenyl)-3-oxoprop-1-en-1-yl)-13-(4-chlorophenyl)-9,10-dihydro-9,10-[3,4]epipyrroloanthracene-12,14-dione]
cell viability (PGA-1 cells [2]): 33%

O=C(/C=C/C12c3ccccc3C(c3ccccc31)C1C(=O)N(c3ccc(C(=O)c4ccccc4)cc3)C(=O)C12)c1ccncc1 (stereo not shown) [Compound 26m, (E)-13-(4-Benzoylphenyl)-9-(3-oxo-3-(pyridin-4-yl)prop-1-en-1-yl)-9,10-dihydro-9,10-[3,4]epipyrroloanthracene-12,14-dione]
cell viability (HG-3 cells [1]): 27% | cell viability (PGA-1 cells [2]): 17% | decrease in cell viability compared to 26f (HG-3 cells [3]; HG-3, 1 µM): 64% | decrease in cell viability compared to 26f (HG-3 cells [3]; HG-3, 10 µM): 59% | decrease in cell viability compared to 26f (PGA-1 cells [4]): 64%

O=C(C=CC12c3ccccc3C(c3ccccc31)C1C(=O)N(c3ccc(Cl)cc3)C(=O)C12)c1ccc(Cl)cc1 (stereo not shown) [Compound 25l, (E)-13-(4-Chlorophenyl)-9-(3-(4-chlorophenyl)-3-oxoprop-1-en-1-yl)-9,10-dihydro-9,10-[3,4]epipyrroloanthracene-12,14-dione]
cell viability (PGA-1 cells [2]): 24%

(E)-13-(4-Chlorophenyl)-9-(3-(4-nitrophenyl)-3-oxoprop-1-en-1-yl)-9,10-dihydro-9,10-[3,4]epipyrroloanthracene-12,14-dione [Compound 25b]
cell viability (HG-3 cells [1]): 35% | cell viability (PGA-1 cells [2]): 34%

(E)-13-(4-Chlorophenyl)-9-(3-oxo-3-(pyridin-4-yl)prop-1-en-1-yl)-9,10-dihydro-9,10-[3,4]epipyrroloanthracene-12,14-dione [Compound 25m]
cell viability (HG-3 cells [1]): 8% | cell viability (PGA-1 cells [2]): 28%

Source: publication PMC11359702, “Synthesis and Biochemical Evaluation of Ethanoanthracenes and Related Compounds: Antiproliferative and Pro-Apoptotic Effects in Chronic Lymphocytic Leukemia (CLL)” (Pharmaceuticals, 2024)
